Structures are written as SMILES. In brackets after ≈: the same amount, converted by molar mass. Starred links: 1 amine or outer side, 2 acyl side, 3 side chain; linkers in the order of their positions; H or OH if unused. Non-standard residues stand in square brackets, D forms with d. Residues, ends and D or L forms follow the SMILES beside them. *: point of attachment. Ethylenediamine = C(CN[*:2])N[*:1]; Lauroyl = CCCCCCCCCCCC(=O)*; Hexanoyl = CCCCCC(=O)*; Ahx = NCCCCCC(=O)O; βAla = NCCC(=O)O

Experiment [1] relates to Staphylococcus aureus ATCC 29213. Briefly: MIC, NCCLS M7-A6 broth microdilution, cation-adjusted Mueller Hinton broth (Table 9, no superscript). Particulars: ATCC 29213. In kind it is cell-based. The protocol:
(§1) Cation-adjusted Mueller Hinton broth was used in the broth microdilution method. In brief, a log-phase bacterial suspension was used to inoculate wells of a 96-well plate so that the final inoculum for each well contained 5×10^5 to 1×10^6 CFU/milliliter. […] Plates were incubated overnight at 37° C. The lowest concentration of peptide that contained no visible growth as evidenced by a lack of turbidity when compared to the control (no peptide) was determined as the MIC. Unless otherwise noted, MIC values listed in Table 9 utilized this method of MIC determination.

For experiment [2], the system named is Salmonella dublin (Lane). Nature of the experiment: MIC, NCCLS M7-A6 broth microdilution (Table 9, no superscript). In kind it is cell-based. The protocol:
as §1

As for `CSCC[C@H](NC(=O)[C@H](Cc1ccccc1)NC(=O)[C@H](CC(N)=O)NC(=O)[C@H](CCCNC(=N)N)NC(=O)[C@H](CO)NC(=O)[C@H](Cc1c[nH]c2ccccc12)NC(=O)[C@H](CC(=O)O)NC(=O)[C@H](CCCNC(=N)N)NC(=O)[C@H](Cc1c[nH]c2ccccc12)NC(=O)[C@H](CCCNC(=N)N)NC(=O)[C@H](CO)NC(=O)[C@H](CCCNC(=N)N)NC(=O)CNC(=O)[C@@H](NC(=O)[C@H](CCCNC(=N)N)NC(=O)[C@H](CO)NC(=O)[C@@H](NC(=O)[C@H](CCCNC(=N)N)NC(=O)[C@@H](NC(C)=O)[C@@H](C)O)C(C)C)[C@@H](C)O)C(=O)N[C@@H](CCCNC(=N)N)C(=O)N[C@@H](CC(C)C)C(=O)N[C@@H](CC(C)C)C(N)=O` [Peptide 19] (Ac-TRVSRTGRSRWRDWSRNFMRLL-NH2), the “MIC S. aureus” value in experiment [1] was over 64 µg/mL. The “MIC S. dublin” value in experiment [2] came to 32 µg/mL (≈ 11.1 µM).
For the compound `CSCC[C@H](NC(=O)[C@H](Cc1ccccc1)NC(=O)[C@H](CC(N)=O)NC(=O)[C@H](CCCNC(=N)N)NC(=O)[C@H](CO)NC(=O)[C@H](Cc1c[nH]c2ccccc12)NC(=O)[C@H](CC(=O)O)NC(=O)[C@H](CCCNC(=N)N)NC(=O)[C@H](Cc1c[nH]c2ccccc12)NC(=O)[C@H](CCCNC(=N)N)NC(=O)[C@H](CO)NC(=O)[C@H](CCCNC(=N)N)NC(=O)CNC(=O)[C@@H](NC(=O)[C@H](CCCNC(=N)N)NC(=O)[C@H](CO)NC(=O)[C@@H](NC(=O)[C@H](CCCNC(=N)N)NC(=O)[C@@H](NC(=O)[C@H](C)NC(=O)[C@H](C)NC(=O)[C@H](CCCCN)NC(=O)[C@H](CCCCN)NC(=O)[C@H](CCCCN)NC(=O)[C@H](CCCCN)NC(C)=O)[C@@H](C)O)C(C)C)[C@@H](C)O)C(=O)N[C@@H](CCCNC(=N)N)C(=O)N[C@@H](C)C(=O)N[C@@H](C)C(=O)N[C@@H](CCCCN)C(=O)N[C@@H](CCCCN)C(=O)N[C@@H](CCCCN)C(=O)N[C@@H](CCCCN)C(N)=O` [Peptide 8] (Ac-KKKKAATRVSRTGRSRWRDWSRNFMRAAKKKK-NH2), in experiment [1], the “MIC S. aureus” value was over 64 µg/mL. Besides, in experiment [2], the “MIC S. dublin” value was over 64 µg/mL.
Turning to `CSCC[C@H](NC(=O)[C@H](Cc1ccccc1)NC(=O)[C@H](CC(N)=O)NC(=O)[C@H](CCCNC(=N)N)NC(=O)[C@H](CO)NC(=O)[C@H](Cc1c[nH]c2ccccc12)NC(=O)[C@H](CC(=O)O)NC(=O)[C@H](CCCNC(=N)N)NC(=O)[C@H](Cc1c[nH]c2ccccc12)NC(=O)[C@H](CCCNC(=N)N)NC(=O)[C@H](CO)NC(=O)[C@H](CCCNC(=N)N)NC(=O)CNC(=O)[C@@H](NC(=O)[C@H](CCCNC(=N)N)NC(=O)[C@H](CO)NC(=O)[C@@H](NC(=O)[C@H](CCCNC(=N)N)NC(=O)[C@@H](NC(C)=O)[C@@H](C)O)C(C)C)[C@@H](C)O)C(=O)N[C@@H](CCCNC(=N)N)C(=O)N[C@@H](C)C(=O)N[C@@H](C)C(=O)N[C@@H](CCCCN)C(=O)N[C@@H](CCCCN)C(=O)N[C@@H](CCCCN)C(=O)N[C@@H](CCCCN)C(=O)N[C@@H](CCCCN)C(=O)N[C@@H](CCCCN)C(N)=O` [Peptide 7] (Ac-TRVSRTGRSRWRDWSRNFMRAAKKKKKK-NH2), the “MIC S. aureus” value in experiment [1] is over 64 µg/mL. Further, the “MIC S. dublin” value in experiment [2] was over 64 µg/mL.
Consider `CCCCCCCCCCCC(=O)N[C@@H](CO)C(=O)N[C@@H](CCCNC(=N)N)C(=O)N[C@@H](Cc1c[nH]c2ccccc12)C(=O)N[C@@H](CCCNC(=N)N)C(=O)N[C@@H](CC(=O)O)C(=O)N[C@H](C(=O)N[C@@H](C)C(=O)N[C@@H](CCCNC(=N)N)C(=O)N[C@@H](CC(N)=O)C(=O)N[C@@H](Cc1ccccc1)C(=O)N[C@@H](CCSC)C(=O)N[C@@H](CCCNC(=N)N)C(N)=O)C(C)C` [Peptide 114, Lauryl-SRWRDVARNFMR-NH2] (Lauroyl-SRWRDVARNFMR-NH2), for which the “MIC S. aureus” value in experiment [1] is 4 µg/mL (≈ 2.25 µM). The “MIC S. dublin” value in experiment [2] was 4 µg/mL (≈ 2.25 µM).
Turning to `CCCCCCCCCCCC(=O)N[C@@H](CCCNC(=N)N)C(=O)N[C@@H](CC(=O)O)C(=O)N[C@H](C(=O)N[C@@H](C)C(=O)N[C@@H](CCCNC(=N)N)C(=O)N[C@@H](CC(N)=O)C(=O)N[C@@H](Cc1ccccc1)C(N)=O)C(C)C` [Peptide 107, Lauryl-RDVARNF-NH2] (Lauroyl-RDVARNF-NH2), the “MIC S. aureus” value in experiment [1] is over 64 µg/mL. Besides, in experiment [2], the “MIC S. dublin” value was over 64 µg/mL.
On to `CCCCCC(=O)NCCCC[C@H](NC(=O)[C@H](CCCNC(=N)N)NC(=O)[C@H](CCSC)NC(=O)[C@H](Cc1ccccc1)NC(=O)[C@H](CC(N)=O)NC(=O)[C@H](CCCNC(=N)N)NC(=O)[C@H](C)NC(=O)[C@@H](NC(=O)[C@H](CC(=O)O)NC(=O)[C@H](CCCNC(=N)N)NC(=O)[C@H](Cc1c[nH]c2ccccc12)NC(=O)[C@H](CCCNC(=N)N)NC(=O)[C@H](CO)NC(=O)[C@@H](N)CCCNC(=N)N)C(C)C)C(N)=O` [Peptide 183, H2N-RSRWRDVARNFMRK(Hexanyl)-NH2] (H-RSRWRDVARNFMRK(Hexanoyl)-NH2), for which, in experiment [1], the “MIC S. aureus” value was over 64 µg/mL. The “MIC S. dublin” value in experiment [2] was over 64 µg/mL.
Consider `CSCC[C@H](NC(=O)[C@H](Cc1ccccc1)NC(=O)[C@H](CC(N)=O)NC(=O)[C@H](CCCNC(=N)N)NC(=O)[C@H](CO)NC(=O)[C@H](Cc1c[nH]c2ccccc12)NC(=O)[C@H](CC(=O)O)NC(=O)[C@H](CCCNC(=N)N)NC(=O)[C@H](Cc1c[nH]c2ccccc12)NC(=O)[C@H](CCCNC(=N)N)NC(=O)[C@H](CO)NC(=O)[C@H](CCCNC(=N)N)NC(=O)CNC(=O)[C@@H](NC(=O)[C@H](CCCNC(=N)N)NC(=O)[C@H](CO)NC(=O)[C@@H](NC(=O)[C@H](CCCNC(=N)N)NC(=O)[C@@H](NC(C)=O)[C@@H](C)O)C(C)C)[C@@H](C)O)C(=O)N[C@@H](CCCNC(=N)N)C(=O)N[C@@H](C)C(=O)N[C@@H](C)C(=O)N[C@@H](CCCNC(=N)N)C(=O)N[C@@H](CCCNC(=N)N)C(=O)N[C@@H](CCCNC(=N)N)C(=O)N[C@@H](CCCNC(=N)N)C(N)=O` [Peptide 9] (Ac-TRVSRTGRSRWRDWSRNFMRAARRRR-NH2), for which, in experiment [1], the “MIC S. aureus” value is over 64 µg/mL. For the same compound, the “MIC S. dublin” value in experiment [2] is over 64 µg/mL.
Consider `CSCC[C@H](NC(=O)[C@H](Cc1ccccc1)NC(=O)[C@H](CC(N)=O)NC(=O)[C@H](CCCNC(=N)N)NC(=O)[C@H](CO)NC(=O)[C@H](Cc1c[nH]c2ccccc12)NC(=O)[C@H](CC(=O)O)NC(=O)[C@H](CCCNC(=N)N)NC(=O)[C@H](Cc1c[nH]c2ccccc12)NC(=O)[C@H](CCCNC(=N)N)NC(=O)[C@H](CO)NC(=O)[C@H](CCCNC(=N)N)NC(=O)CNC(=O)[C@@H](NC(=O)[C@H](CCCNC(=N)N)NC(=O)[C@H](CO)NC(=O)[C@@H](NC(=O)[C@H](CCCNC(=N)N)NC(=O)[C@@H](NC(=O)CCN)[C@@H](C)O)C(C)C)[C@@H](C)O)C(=O)N[C@@H](CCCNC(=N)N)C(=O)N[C@@H](C)C(=O)N[C@@H](C)C(N)=O` [Peptide 18] (H-[βAla]TRVSRTGRSRWRDWSRNFMRAA-NH2), for which the “MIC S. aureus” value in experiment [1] is over 64 µg/mL. Also, the “MIC S. dublin” value in experiment [2] was over 64 µg/mL.
With `CSCC[C@H](NC(=O)[C@H](Cc1ccccc1)NC(=O)[C@H](CC(N)=O)NC(=O)[C@H](CCCNC(=N)N)NC(=O)[C@H](CO)NC(=O)[C@H](Cc1c[nH]c2ccccc12)NC(=O)[C@H](CC(=O)O)NC(=O)[C@H](CCCNC(=N)N)NC(=O)[C@H](Cc1c[nH]c2ccccc12)NC(=O)[C@H](CCCNC(=N)N)NC(=O)[C@H](CO)NC(=O)[C@H](CCCNC(=N)N)NC(=O)CNC(=O)[C@@H](NC(=O)[C@H](CCCNC(=N)N)NC(=O)[C@H](CO)NC(=O)[C@@H](NC(=O)[C@H](CCCNC(=N)N)NC(=O)[C@@H](NC(C)=O)[C@@H](C)O)C(C)C)[C@@H](C)O)C(=O)N[C@@H](CCCNC(=N)N)C(=O)N[C@@H](C)C(=O)N[C@@H](C)C(=O)N[C@@H](CCCCN)C(=O)N[C@@H](CCCCN)C(=O)N[C@@H](CCCCN)C(=O)N[C@@H](CCCCN)C(N)=O` [Peptide 5] (Ac-TRVSRTGRSRWRDWSRNFMRAAKKKK-NH2), the “MIC S. aureus” value in experiment [1] was over 64 µg/mL. The “MIC S. dublin” value in experiment [2] is over 64 µg/mL.
As for `CCCCCCCCCCCC(=O)NCCNC(=O)[C@H](CCCNC(=N)N)NC(=O)[C@H](CC(C)C)NC(=O)[C@H](Cc1ccccc1)NC(=O)[C@H](CC(N)=O)NC(=O)[C@H](CCCNC(=N)N)NC(=O)[C@H](C)NC(=O)[C@@H](NC(=O)[C@H](CC(=O)O)NC(=O)[C@H](CCCNC(=N)N)NC(=O)[C@H](Cc1c[nH]c2ccccc12)NC(=O)[C@H](CCCNC(=N)N)NC(=O)[C@H](CO)NC(=O)[C@@H](N)CCCNC(=N)N)C(C)C` [Peptide 171, H2N-RSRWRDVARNFLR-Ethylamidolauryl] (H-RSRWRDVARNFLR-{Ethylenediamine-Lauroyl}; C-terminus assumed), in experiment [1], the “MIC S. aureus” value amounted to 8 µg/mL (≈ 4.09 µM). In addition, the “MIC S. dublin” value in experiment [2] was found to be 8 µg/mL (≈ 4.09 µM).
As for `CC[C@H](C)[C@H](NC(=O)[C@@H](NC(=O)[C@H](CC(C)C)NC(=O)[C@H](CO)NC(=O)[C@@H](NC(=O)[C@H](CCCNC(=N)N)NC(=O)[C@H](Cc1ccc(O)cc1)NC(=O)[C@H](CC(=O)O)NC(=O)[C@H](CCCNC(=N)N)NC(C)=O)[C@@H](C)O)[C@@H](C)O)C(=O)N[C@H](C(=O)N[C@@H](CCC(N)=O)C(=O)N[C@@H](CCCCN)C(=O)NCCCCCC(=O)N[C@H](C(=O)N[C@@H](CCCNC(=N)N)C(=O)N[C@H](C(=O)N[C@@H](CO)C(=O)N[C@@H](CCCNC(=N)N)C(=O)N[C@H](C(=O)NCC(=O)N[C@@H](CCCNC(=N)N)C(=O)N[C@@H](CO)C(=O)N[C@@H](CCCNC(=N)N)C(=O)N[C@@H](Cc1c[nH]c2ccccc12)C(=O)N[C@@H](CCCNC(=N)N)C(=O)N[C@@H](CC(=O)O)C(=O)N[C@@H](Cc1c[nH]c2ccccc12)C(=O)N[C@@H](CO)C(=O)N[C@@H](CCCNC(=N)N)C(=O)N[C@@H](CC(N)=O)C(=O)N[C@@H](Cc1ccccc1)C(=O)N[C@@H](CCSC)C(=O)N[C@@H](CCCNC(=N)N)C(N)=O)[C@@H](C)O)C(C)C)[C@@H](C)O)C(C)C` [Peptide 28, Ac-RDYRTSLTIVQKXTRVSRTGRSRWRDWSRNFMR-NH2 X = aminohexanoic acid] (Ac-RDYRTSLTIVQK[Ahx]TRVSRTGRSRWRDWSRNFMR-NH2), in experiment [1], the “MIC S. aureus” value was over 64 µg/mL. In experiment [2], the “MIC S. dublin” value was over 64 µg/mL.

The values are drawn from US20050282755A1, “Compositions having antimicrobial activity and uses thereof” (priority 2004, published 2005).
